Reference: patent publication US8258149B2, “Isoquinoline derivatives” (Hoffmann-La Roche Inc., priority 2009, dated 2012)

System: L6 myotubes
Test: Glucose uptake (2-deoxy-D-[3H]glucose) in L6 myotubes, effectiveness in muscular glucose utilization
Type: cell-based
Settings: Rattus norvegicus, L6 myotubes treated with compound 2 hours
Protocol: L6 myoblasts were cultured in DMEM supplemented with 10% FBS. Confluent cells were differentiated to myotubes by culturing with DMEM supplemented with 2% FBS for 6 days. L6 myotubes were treated with compounds for 2 hours. Glucose uptake was performed in 16 h serum-starved cells. Cells were washed with PBS and incubated in Krebs-Ringer phosphate-HEPES buffer containing 0.1% BSA with or without 100 nmol/l insulin. Then, cells were incubated with 0.05 mmol/l 2-deoxy-D-glucose and 0.5 μCi 2-deoxy-D-[1,2-^3H]glucose for 10 min. The assay was terminated by washing the cells three times with ice-cold PBS. Cells were solubilised with 0.1% triton X-100 and radioactivity was determined by liquid scintillation counting. Total cellular protein concentration was measured by the Bradford method. Glucose uptake was performed in duplicate. The compounds were tested at concentrations of 1 uM and 3 uM. In this test, the compounds of formula (I) induce a glucose uptake activity between 1 and 2 fold the glucose uptake activity of the vehicle. Some particularly preferred compounds of formula (I) induce a glucose uptake activity between 1.2 and 2 fold the glucose uptake of the vehicle. Other particularly preferred compounds of formula (I) induce a glucose uptake activity between 1.4 and 2 fold the glucose uptake activity of the vehicle.

Row | SMILES | fold induction at 1 µM | fold induction at 3 µM
1 | COc1ccc2c(c1OC)C(c1ccccc1)N1CCc3cc4c(cc3C1=C2)OCO4 (centres unmarked) [Example 1, 9,10-Dimethoxy-8-phenyl-5,8-dihydro-6H-[1,3]dioxolo[4,5-g]isoquino[3,2-a]isoquinoline] | 1.32 | 1.3
2 | COc1ccc2c(c1OC)C1(CCCC1)N1CCc3cc4c(cc3C1C2)OCO4 (centres unmarked) [Example 2, 9′,10′-Dimethoxy-5′,6′,13′,13a′-tetrahydrospiro[cyclopentane-1,8′-[1,3]dioxolo[4,5-g]isoquino[3,2-a]isoquinoline]] | 1.11 | 1.07
3 | C=CC1c2c(ccc(OC)c2OC)C=C2c3cc4c(cc3CCN21)OCO4 (centres unmarked) [Example 3, 9,10-Dimethoxy-8-vinyl-5,8-dihydro-6H-[1,3]dioxolo[4,5-g]isoquino[3,2-a]isoquinoline] | 1.16 | 1.11
4 | C=C(C)C1c2c(ccc(OC)c2OC)C=C2c3cc4c(cc3CCN21)OCO4 (centres unmarked) [Example 4, 8-Isopropenyl-9,10-dimethoxy-5,8-dihydro-6H-[1,3]dioxolo[4,5-g]isoquino[3,2-a]isoquinoline] | 1.86 | 1.46
5 | C#CC1c2c(ccc(OC)c2OC)C=C2c3cc4c(cc3CCN21)OCO4 (centres unmarked) [Example 5, 8-Ethynyl-9,10-dimethoxy-5,8-dihydro-6H-[1,3]dioxolo[4,5-g]isoquino[3,2-a]isoquinoline] | – | 1.15
6 | C=CCC1c2c(ccc(OC)c2OC)C=C2c3cc4c(cc3CCN21)OCO4 (centres unmarked) [Example 6, 8-Allyl-9,10-dimethoxy-5,8-dihydro-6H-[1,3]dioxolo[4,5-g]isoquino[3,2-a]isoquinoline] | – | 1.07
7 | CC#CC1c2c(ccc(OC)c2OC)C=C2c3cc4c(cc3CCN21)OCO4 (centres unmarked) [Example 7, 9,10-Dimethoxy-8-prop-1-ynyl-5,8-dihydro-6H-[1,3]dioxolo[4,5-g]isoquino[3,2-a]isoquinoline] | 1.58 | 1.68
8 | C=C(C)C1c2c(ccc(OC)c2OC)C(C)=C2c3cc4c(cc3CCN21)OCO4 (centres unmarked) [Example 8, 8-Isopropenyl-9,10-dimethoxy-13-methyl-5,8-dihydro-6H-[1,3]dioxolo[4,5-g]isoquino[3,2-a]isoquinoline] | 1.2 | 1.35
9 | CC#CC1c2c(ccc(OC)c2OC)C(C)=C2c3cc4c(cc3CCN21)OCO4 (centres unmarked) [Example 9, 9,10-Dimethoxy-13-methyl-8-prop-1-ynyl-5,8-dihydro-6H-[1,3]dioxolo[4,5-g]isoquino[3,2-a]isoquinoline] | 1.63 | 0.99
10 | C=C(C)C1c2c(ccc(OC)c2OC)C(CC)=C2c3cc4c(cc3CCN21)OCO4 (centres unmarked) [Example 10, 13-Ethyl-8-isopropenyl-9,10-dimethoxy-5,8-dihydro-6H-[1,3]dioxolo[4,5-g]isoquino[3,2-a]isoquinoline] | 1.05 | 1.22
11 | C=CCC1c2c(ccc(OC)c2OC)C(CC)=C2c3cc4c(cc3CCN21)OCO4 (centres unmarked) [Example 11, 8-Allyl-13-ethyl-9,10-dimethoxy-5,8-dihydro-6H-[1,3]dioxolo[4,5-g]isoquino[3,2-a]isoquinoline] | 1.15 | –
12 | CC#CC1c2c(ccc(OC)c2OC)C(CC)=C2c3cc4c(cc3CCN21)OCO4 (centres unmarked) [Example 12, 13-Ethyl-9,10-dimethoxy-8-prop-1-ynyl-5,8-dihydro-6H-[1,3]dioxolo[4,5-g]isoquino[3,2-a]isoquinoline] | 1.59 | 1.22
13 | C=CCC1=C2c3cc4c(cc3CCN2C(C(=C)C)c2c1ccc(OC)c2OC)OCO4 (centres unmarked) [Example 13, 13-Allyl-8-isopropenyl-9,10-dimethoxy-5,8-dihydro-6H-[1,3]dioxolo[4,5-g]isoquino[3,2-a]isoquinoline] | 0.94 | 1.05
14 | COc1ccc2c(c1OC)C(C)(C)N1CCc3cc4c(cc3C1=C2C)OCO4 [Example 14, 9,10-Dimethoxy-8,8,13-trimethyl-5,8-dihydro-6H-[1,3]dioxolo[4,5-g]isoquino[3,2-a]isoquinoline] | 1.21 | 1.18
15 | CCC1(CC)c2c(ccc(OC)c2OC)C(C)=C2c3cc4c(cc3CCN21)OCO4 [Example 15, 8,8-Diethyl-9,10-dimethoxy-13-methyl-5,8-dihydro-6H-[1,3]dioxolo[4,5-g]isoquino[3,2-a]isoquinoline] | 1.22 | 1.14
16 | CCC1=C2c3cc4c(cc3CCN2C(C)(C)c2c1ccc(OC)c2OC)OCO4 [Example 16, 13-Ethyl-9,10-dimethoxy-8,8-dimethyl-5,8-dihydro-6H-[1,3]dioxolo[4,5-g]isoquino[3,2-a]isoquinoline] | 1.25 | 0.91
17 | C=CCC1(CC=C)c2c(ccc(OC)c2OC)C=C2c3cc4c(cc3CCN21)OCO4 [Example 17, 8,8-Diallyl-9,10-dimethoxy-5,8-dihydro-6H-[1,3]dioxolo[4,5-g]isoquino[3,2-a]isoquinoline] | 1.34 | 1.04
18 | COc1ccc2c(c1OC)C(C)(C)N1CCc3cc4c(cc3C1=C2Cc1ccccc1)OCO4 [Example 18, 13-Benzyl-9,10-dimethoxy-8,8-dimethyl-5,8-dihydro-6H-[1,3]dioxolo[4,5-g]isoquino[3,2-a]isoquinoline] | 1.19 | 1.05
19 | COc1cc(Cl)c2c(c1OC)C(C)(C)N1CCc3cc4c(cc3C1=C2)OCO4 [Example 19, 12-Chloro-9,10-dimethoxy-8,8-dimethyl-5,8-dihydro-6H-[1,3]dioxolo[4,5-g]isoquino[3,2-a]isoquinoline] | 1.25 | 1.24
20 | COc1ccc2c(c1OC)C1(CCCC1)N1CCc3cc4c(cc3C1=C2)OCO4 [Example 20, 9′,10′-Dimethoxy-5′,6′-dihydrospiro[cyclopentane-1,8′-[1,3]dioxolo[4,5-g]isoquino[3,2-a]isoquinoline]] | 1.2 | 1.18
21 | COc1ccc2c(c1OC)C(C)(C)N1CCc3cc4c(cc3C1C2)OCO4 (centres unmarked) [Example 21, 9,10-Dimethoxy-8,8-dimethyl-5,8,13,13a-tetrahydro-6H-[1,3]dioxolo[4,5-g]isoquino[3,2-a]isoquinoline] | 1.22 | 1.14
22 | COc1ccc2c(c1OC)C(C)(C)N1CCc3cc4c(cc3C1C2C)OCO4 (centres unmarked) [Example 22, 9,10-Dimethoxy-8,8,13-trimethyl-5,8,13,13a-tetrahydro-6H-[1,3]dioxolo[4,5-g]isoquino[3,2-a]isoquinoline] | 1.38 | 1.46
23 | CCC1(CC)c2c(ccc(OC)c2OC)C(C)C2c3cc4c(cc3CCN21)OCO4 (centres unmarked) [Example 23, 8,8-Diethyl-9,10-dimethoxy-13-methyl-5,8,13,13a-tetrahydro-6H-[1,3]dioxolo[4,5-g]isoquino[3,2-a]isoquinoline] | 1.1 | 1.14
24 | COc1ccc2c(c1OC)C(C)(C)N1CCc3cc4c(cc3C1C2Cc1ccccn1)OCO4 (centres unmarked) [Example 24, 9,10-Dimethoxy-8,8-dimethyl-13-pyridin-2-ylmethyl-5,8,13,13a-tetrahydro-6H-[1,3]dioxolo[4,5-g]isoquino[3,2-a]isoquinoline] | 1.11 | 1.03
25 | COc1ccc2c(c1OC)C(C)(C)N1CCc3cc4c(cc3C1C2Cc1ccccc1)OCO4 (centres unmarked) [Example 25, 13-Benzyl-9,10-dimethoxy-8,8-dimethyl-5,8,13,13a-tetrahydro-6H-[1,3]dioxolo[4,5-g]isoquino[3,2-a]isoquinoline] | 1.13 | 1.02
26 | COc1ccc2c(c1OC)C1(CC=CC1)N1CCc3cc4c(cc3C1C2)OCO4 (centres unmarked) [Example 26, 9′,10′-Dimethoxy-5′,6′,13′,13a′-tetrahydrospiro[cyclopent-3-ene-1,8′-[1,3]dioxolo[4,5-g]isoquino[3,2-a]isoquinoline]] | 1.12 | 1.11
27 | COc1ccc2c(c1OC)C(C)(C)N1CCc3cc4c(cc3C1=C2)OCO4 [Example 27, 9,10-Dimethoxy-8,8-dimethyl-5,8-dihydro-6H-[1,3]dioxolo[4,5-g]isoquino[3,2-a]isoquinoline] | 1.62 | 1.65
28 | CCC1(CC)c2c(ccc(OC)c2OC)C=C2c3cc4c(cc3CCN21)OCO4 [Example 28, 8,8-Diethyl 9,10-dimethoxy-5,8-dihydro-6H-[1,3]dioxolo[4,5-g]isoquino[3,2-a]isoquinoline] | 1.47 | 1.12
